From the NIST ThermoML archive (doi:10.1021/je0496600)

Experiment: mn = molality of the nth substance listed, in mol/kg
Details: 101.3 kPa, Liquid; for speed of sound: Sing-around technique in a fixed-path interferometer

O=C([O-])CCC(=O)[O-].[Na+].[Na+] [disodium succinate] + O
Details | mass density, 298.15 K [kg/m3] | mass density, 308.15 K [kg/m3] | mass density, 318.15 K [kg/m3] | speed of sound, 298.15 K [m/s] | speed of sound, 308.15 K [m/s] | speed of sound, 318.15 K [m/s]
m1 = 0.0188 | 999.052 | 996.011 | 992.179 | 1500.2 | 1523.2 | 1539.9
m1 = 0.0239 | 999.583 | 996.544 | 992.703 | 1501.1 | 1524.1 | 1540.6
m1 = 0.0336 | 1000.61 | 997.55 | 993.703 | 1502.7 | 1525.6 | 1542.1
m1 = 0.0373 | 1001 | 997.934 | 994.083 | 1503.4 | 1526.2 | 1542.7
m1 = 0.0452 | 1001.82 | 998.747 | 994.887 | 1504.9 | 1527.5 | 1544
m1 = 0.0489 | 1002.2 | 999.13 | 995.266 | 1505.4 | 1528 | 1544.6
m1 = 0.0546 | 1002.79 | 999.711 | 995.841 | 1506.3 | 1528.9 | 1545.3
m1 = 0.0593 | 1003.28 | 1000.19 | 996.315 | 1507.1 | 1529.7 | 1546.6
m1 = 0.068 | 1004.18 | 1001.08 | 997.197 | 1509 | 1531.7 | 1547.5
m1 = 0.0763 | 1005.05 | 1001.94 | 998.046 | 1510.5 | 1532.4 | 1548.5
m1 = 0.0864 | 1006.09 | 1002.96 | 999.064 | 1511.7 | 1533.9 | 1549.9
m1 = 0.0935 | 1006.82 | 1003.69 | 999.785 | 1512.8 | 1535.1 | 1551.2
m1 = 0.1221 | 1009.74 | 1006.56 | 1002.63 | 1517.5 | 1539.5 | 1555.2
m1 = 0.2589 | 1023.44 | 1020.07 | 1016.03 | 1539.8 | 1560.3 | 1575.1
m1 = 0.3292 | 1030.32 | 1026.85 | 1022.73 | 1551 | 1570.8 | 1585.2
m1 = 0.4019 | 1037.3 | 1033.75 | 1029.56 | 1562.4 | 1581.6 | 1595.8
m1 = 0.4364 | 1040.57 | 1036.98 | 1032.77 | 1567.8 | 1586.6 | 1600.7
m1 = 0.5252 | 1048.89 | 1045.2 | 1040.92 | 1582 | 1599.5 | 1612
m1 = 0.6535 | 1060.59 | 1056.74 | 1052.37 | 1601.2 | 1617.8 | 1629.2
m1 = 0.7422 | 1068.47 | 1064.55 | 1060.13 | 1615.1 | 1630.5 | 1641
m1 = 0.9099 | 1083.03 | 1078.94 | 1074.41 | 1639.8 | 1653.3 | 1662.7
m1 = 1.168 | 1104.44 | 1100.13 | 1095.45 | 1675.7 | 1687.5 | 1694.9
m1 = 1.43 | 1125.04 | 1120.37 | 1115.74 | 1711.2 | 1720.9 | 1726.2
m1 = 1.748 | 1148.68 | 1143.92 | 1138.95 | 1752.4 | 1759 | 1762.5

O=C[O-].[Na+] [sodium methanoate] + O
Details | mass density, 298.15 K [kg/m3] | mass density, 308.15 K [kg/m3] | mass density, 318.15 K [kg/m3] | speed of sound, 298.15 K [m/s] | speed of sound, 308.15 K [m/s] | speed of sound, 318.15 K [m/s]
m1 = 0.0263 | 998.164 | 995.129 | 991.308 | 1498.6 | 1521.7 | 1538.3
m1 = 0.0331 | 998.451 | 995.412 | 991.587 | 1499.1 | 1522.1 | 1538.8
m1 = 0.0437 | 998.896 | 995.851 | 992.021 | 1499.7 | 1522.7 | 1539.3
m1 = 0.0497 | 999.147 | 996.099 | 992.265 | 1500.1 | 1523.1 | 1539.6
m1 = 0.057 | 999.452 | 996.397 | 992.559 | 1500.6 | 1523.5 | 1540
m1 = 0.0682 | 999.921 | 996.863 | 993.016 | 1501.2 | 1524.2 | 1540.6
m1 = 0.0747 | 1000.2 | 997.131 | 993.282 | 1501.6 | 1524.5 | 1541
m1 = 0.0811 | 1000.46 | 997.398 | 993.545 | 1502.1 | 1524.9 | 1541.3
m1 = 0.0909 | 1000.88 | 997.799 | 993.945 | 1502.7 | 1525.5 | 1541.9
m1 = 0.0975 | 1001.15 | 998.074 | 994.215 | 1503 | 1525.9 | 1542.4
m1 = 0.1428 | 1003.03 | 999.916 | 996.044 | 1505.9 | 1528.5 | 1544.5
m1 = 0.2955 | 1009.33 | 1006.11 | 1002.18 | 1515.1 | 1536.9 | 1552.5
m1 = 0.4697 | 1016.34 | 1012.98 | 1008.95 | 1525.2 | 1546.2 | 1561.2
m1 = 0.6887 | 1024.99 | 1021.49 | 1017.38 | 1537.7 | 1557.7 | 1572.6
m1 = 0.8366 | 1030.69 | 1027.11 | 1022.93 | 1546 | 1565.3 | 1579
m1 = 0.9653 | 1035.61 | 1031.93 | 1027.66 | 1553.1 | 1571.8 | 1584.9
m1 = 1.139 | 1042.15 | 1038.38 | 1034.04 | 1562.4 | 1580.4 | 1593.2
m1 = 1.233 | 1045.63 | 1041.81 | 1037.43 | 1567.5 | 1585 | 1597.3
m1 = 1.496 | 1055.23 | 1051.27 | 1046.79 | 1581.2 | 1597.5 | 1609.2
m1 = 2.188 | 1079.46 | 1075.15 | 1070.43 | 1615.3 | 1628.8 | 1638.3
m1 = 2.783 | 1099.17 | 1094.61 | 1089.57 | 1642.8 | 1653.9 | 1661.4
m1 = 3.458 | 1120.32 | 1115.48 | 1110.11 | 1671.7 | 1680.4 | 1685.7
m1 = 4.201 | 1142.29 | 1137.22 | 1131.78 | 1701.1 | 1707.2 | 1709.9
m1 = 4.966 | 1163.55 | 1158.26 | 1152.83 | 1729.1 | 1732.7 | 1733.4
m1 = 6.561 | 1204.09 | 1198.4 | 1192.37 | 1779.4 | 1778.7 | 1775.7
m1 = 7.737 | 1230.99 | 1225.05 | 1218.87 | 1811.1 | 1807.6 | 1802
m1 = 8.551 | 1248.27 | 1242.15 | 1235.77 | 1830.5 | 1825.3 | 1818.3
m1 = 10.05 | 1277.62 | 1271.22 | 1264.6 | 1862.1 | 1854.1 | 1844.6
